Where two headings read alike, the source gives them in different places.

Experimental findings from US5260197A, “L-fucose dehydrogenase, a process for production thereof, quantitative assay for L-fucose using said enzyme and a kit for quantitative assay” (Noda Institute for Scientific Research, priority 1988, dated 1993) are described below.

Series [1] addresses T1, L-fucose dehydrogenase (L-FDH) (Pseudomonas sp, UniProt Q52472).
T1 construct: L-FDH was accumulated in the cell portion; made in house; host or cells: Pseudomonas sp; No. 1143 (FERM BP-2056), the natural producing strain isolated from soil; enzyme purified from its cells, not recombinant
T1 sequence (Q52472 1-329): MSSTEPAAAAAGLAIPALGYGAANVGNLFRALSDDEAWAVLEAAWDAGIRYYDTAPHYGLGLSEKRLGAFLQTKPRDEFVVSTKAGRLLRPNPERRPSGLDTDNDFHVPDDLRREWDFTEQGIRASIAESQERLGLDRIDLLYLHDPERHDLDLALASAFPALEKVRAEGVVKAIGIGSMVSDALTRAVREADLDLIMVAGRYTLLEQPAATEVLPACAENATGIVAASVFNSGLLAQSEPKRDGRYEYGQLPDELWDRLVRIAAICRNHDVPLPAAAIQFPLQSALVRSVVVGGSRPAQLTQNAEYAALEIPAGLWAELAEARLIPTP
The format is biochemical. The following applies: for Residual Activity (%): inhibitor or metal salt 2 mM in reaction solution, None = 100. As for the experimental part: (§1) To 2.5 ml of Tris-imidazole-sodium acetate buffer solution (solution containing 0.12 M each is adjusted to pH of 9.5 with 4 N NaOH) is added 0.2 ml of 15 mM NADP^+ solution After keeping at 37° C. for 5 minutes, 0.1 ml of an enzyme solution is added and 0.2 ml of 150 mM L-fucose solution is further added to the system to initiate the reaction. Immediately thereafter, the reaction mixture is transferred to a cell for measurement of absorbance (1 cm light path) kept at 37° C. and absorbance is measured at the wavelength of 340 nm for 2 minutes or, if necessary, over a longer time period. One unit is an amount of enzyme that produces 1 μmole of NADPH for one minute.

In series [2] the target is T1, L-fucose dehydrogenase (L-FDH). The series can be described thus: L-FDH substrate and coenzyme specificity (determination of activity, NADPH at 340 nm). The class given is biochemical, Pseudomonas sp. No. 1143. The conditions noted are these: for specificity of the enzyme to substrate sugar (relative activity): L-fucose = 100%, NADP+ as coenzyme; for coenzyme requirement (relative activity): NADP+ = 100%, L-fucose as substrate. As for the experimental part: As shown in the following reaction equation, the enzyme oxidizes L-fucose to L-fuconolactone in the presence of L-fucose and NADP+ and at the same time reduces NADP^+ to NADPH.
Furthermore, the enzyme requires NADP^+ (100%) as coenzyme but reacts very little with NAD^+ (1%).
as §1

The target is the same in series [3]. The series can be described thus: Optimum pH and temperature, pH stability and thermal stability of L-FDH. The class given is biochemical, Pseudomonas sp. No. 1143. As for the experimental part: By heat treatment at 30° C. for 60 minutes, the enzyme is stable at a pH value of 8.0 to 10.5 but is unstable at a pH value below 6.0.
as §1

Series [4] can be described thus: Polyacrylamide gel isoelectrofocusing of L-FDH. The class given is physicochemical, Pseudomonas sp. No. 1143.
Setting [5] is: metal salts and inhibitors, 2 mM.

For `[Ca+2].[Cl-].[Cl-]` [CaCl2], the “inhibition and activation of enzyme activity” value (“inhibition and activation” below) in series [1] (setting [5]) is recorded as “not observed”. As for `O=S(=O)([O-])[O-].[Cd+2]` [CdSO4], in series [1], the “Residual Activity (%)” value came out at 2%. With `O=S(=O)([O-])[O-].[Cu+2]` [CuSO4], the “inhibition and activation” value in series [1] (setting [5]) was “not observed”. Take `O=C[C@@H](O)[C@H](O)[C@H](O)CO` [D-arabinose]: in series [2], the “specificity of the enzyme to substrate sugar (relative activity)” value amounted to 1%. As for `O=C(O)CN(CCN(CC(=O)O)CC(=O)O)CC(=O)O` [EDTA], in series [1], the “inhibition and activation” value is “not observed”. Consider `[Cl][Hg][Cl]` [HgCl2], for which the “Residual Activity (%)” value in series [1] was found to be 2%. With `NC(=O)CI` [Iodoacetamide], the “Residual Activity (%)” value in series [1] was 91%. For the molecule `C[C@H](O)[C@@H](O)[C@@H](O)[C@H](O)C=O` [L-fucose], in series [2], the “specificity of the enzyme to substrate sugar (relative activity)” value was determined as 100%. The same measure, in the same setting: for `O=C[C@@H](O)[C@H](O)[C@H](O)[C@@H](O)CO` [L-galactose] the value was 96%. For `O=S(=O)([O-])[O-].[Mg+2]` [MgSO4], the “inhibition and activation” value in series [1] (setting [5]) was “not observed”. As for `NC(=O)c1ccc[n+]([C@@H]2O[C@H](COP(=O)([O-])OP(=O)(O)OC[C@H]3O[C@@H](n4cnc5c(N)ncnc54)[C@H](OP(=O)(O)O)[C@@H]3O)[C@@H](O)[C@H]2O)c1` [NADP^+, oxidized nicotinamide adenine dinucleotide phosphate], the “coenzyme requirement (relative activity)” value in series [2] turned out to be 100%. As to `NC(=O)c1ccc[n+]([C@@H]2O[C@H](COP(=O)([O-])OP(=O)(O)OC[C@H]3O[C@@H](n4cnc5c(N)ncnc54)[C@H](O)[C@@H]3O)[C@@H](O)[C@H]2O)c1` [NAD^+, nicotinamide adenine dinucleotide], the “coenzyme requirement (relative activity)” value in series [2] is on record as 1%. For `[N-]=[N+]=[N-].[Na+]` [NaN3], the “inhibition and activation” value in series [1] (setting [5]) is reported as “not observed”. On the same count and under the same terms, for `O=S(=O)([O-])[O-].[Ni+2]` [NiSO4] the value was “not observed”. `O=C(O)c1cc[c]([Hg][Cl])cc1` [PCMB]: the “Residual Activity (%)” value in series [1] came out at 18%. In the case of `O=S(=O)([O-])[O-].[Zn+2]` [ZnSO4], the “Residual Activity (%)” value in series [1] was 81%. Take `c1cnc2c(c1)ccc1cccnc12` [o-phenanthroline]: in series [1] (setting [5]), the “inhibition and activation” value is listed as “not observed”.

For `c1ccc(-c2ccccn2)nc1` [α,α'-dipyridyl], the “inhibition and activation” value in series [1] (setting [5]) was “not observed”. Regarding L-fucose dehydrogenase [L-FDH], the “pH at which the enzyme is unstable” value in series [3] (heat treatment at 30° C. for 60 minutes) is on record as “below 6.0”. Besides, in series [3] (heat treatment for 10 minutes, FIG. 4), the “temperature up to which the enzyme is stable” value is “up to 40 °C”. This molecule yielded an isoelectric point in series [4] of 5.2.
